Holding throughout (assay): DTP human tumour cell line panel, 48 h
Experiment [1] deals with SK-MEL-5.
For experiment [2], the system named is HL-60.
Experiment [3] has as its system SW-620.
In experiment [4] the test system is MDA-MB-435.
The subject of experiment [5] is M14.
Experiment [6] has as its system Hs-578T.
Experiment [7] has as its system SF-539.
In experiment [8] the test system is COLO 205.
The test system of experiment [9] is KM12.
Experiment [10] has as its system NCI/ADR-RES.
Experiment [11] has as its system UACC-257.
For experiment [12], the system named is OVCAR-4.
In experiment [13] the test system is SK-MEL-2.
The subject of experiment [14] is RPMI-8226.
For experiment [15], the system named is SF-295.
Experiment [16] has as its system NCI-H522.
The test system of experiment [17] is UACC-62.
Experiment [18] relates to SNB-75.
The subject of experiment [19] is MOLT-4.
The test system of experiment [20] is OVCAR-8.

Each structure is given as a SMILES string.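 Tested at 5 concentrations; 48 h exposure; 96-well plates; endpoints linearly interpolated, else capped at highest concentration. GI50 is the concentration that inhibits growth by half.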 Active and inactive are the calls of the source. No stated cut-off is given here; in the data, active = GI50 up to about 1.1 µM and inactive = higher. Where only a bound is given, the exact number is not on record here.

With `Cc1ccc(SC(=O)N2C(=S)N=C(NC3CCCCC3)C23CCCCC3)cc1`, the GI50 in experiment [1] is > 100 µM (inactive); in experiment [2] it was 38.6 µM (inactive); in experiment [3], > 100 µM (inactive); in experiment [4] it was > 100 µM (inactive); in experiment [5] it was > 100 µM (inactive); in experiment [6] it was 62.2 µM (inactive). The GI50 is > 100 µM (inactive) in experiment [7]; 43.4 µM (inactive) in experiment [8]; 69.7 µM (inactive) in experiment [9]; > 100 µM (inactive) in [10]; 82.8 µM (inactive) in experiment [11]; > 100 µM (inactive) in experiment [12]. Besides, the GI50 in experiment [13] was > 100 µM (inactive); in [14], > 100 µM (inactive); in experiment [15], > 100 µM (inactive); in [16], 65.8 µM (inactive); in experiment [17] it was > 100 µM (inactive); in experiment [18], 57.9 µM (inactive).

With `Oc1ccc([C@H]2c3c(O)cc(O)cc3C3c4c(cc(O)cc4[C@@H]2[C@H]2c4cc(O)cc5c4C(c4cc(O)cc(O)c4[C@@H]2c2ccc(O)cc2)[C@@H](c2ccc(O)cc2)O5)O[C@@H]3c2ccc(O)cc2)cc1` (stereo not given in full), the GI50 in [1] is 7.41 µM (inactive); in experiment [2], 2.48 µM (inactive); in experiment [4], 2.59 µM (inactive); in experiment [5], 6.25 µM (inactive); in experiment [6] it was 0.0497 µM (active); in experiment [7], 0.564 µM (active). The GI50 in [8] was 0.348 µM (active); in experiment [9] it was 0.0211 µM (active); in [10] it was > 100 µM (inactive); in [11] it was 0.356 µM (active); in [19], 0.975 µM (active); in experiment [12], 0.83 µM (active). In addition, the GI50 in [13] is 1.58 µM (inactive); in [14] it was 41.4 µM (inactive); in [20], 2.69 µM (inactive); in experiment [15] it was 3.86 µM (inactive); in experiment [16], 7.45 µM (inactive); in experiment [17], 0.15 µM (active). In addition, the GI50 in [18] was 0.5 µM (active).

Regarding `CC(C)C1N(C)c2ccc(Cl)cc2[C@H]2c3ccccc3CCN12` (stereo not given in full), the GI50 in experiment [2] is 27.7 µM (inactive); in [3], 97.3 µM (inactive); in experiment [4], 23 µM (inactive); in experiment [5], 55.1 µM (inactive); in experiment [6], 25.8 µM (inactive); in experiment [7] it was > 100 µM (inactive). Further, the GI50 in experiment [8] was 36.4 µM (inactive); in [9], 50.9 µM (inactive); in [10] it was > 100 µM (inactive); in [11], 30.4 µM (inactive); in experiment [19], 37.8 µM (inactive); in experiment [12] it was 69.2 µM (inactive). Also, the GI50 in [13] was 25.9 µM (inactive); in experiment [14] it was 18.7 µM (inactive); in experiment [20] it was > 100 µM (inactive); in experiment [15], 18.2 µM (inactive); in experiment [16], 21.9 µM (inactive); in experiment [17], 25.4 µM (inactive). The GI50 in [18] was 61.8 µM (inactive).

As to `CC1OC2=N[C@@H]1C(=O)N[C@@H](C(C)C)C1=N[C@H](C(=O)N[C@@H](C(C)C)C3=N[C@H](C(=O)N[C@@H](C(C)C)C4=N[C@H](C(=O)N[C@H]2C(C)C)C(C)O4)C(C)O3)C(C)O1` (stereo not given in full), the GI50 in [1], in experiment [2], in experiment [3], in [4], in experiment [5] and in experiment [6] was > 10 µM (inactive) throughout. Besides, the GI50 in experiment [7], in experiment [8], in [9], in [10], in experiment [11] and in [19] was > 10 µM (inactive) throughout. In addition, the GI50 in [12], in experiment [13], in experiment [14], in experiment [20], in [15] and in [16] was > 10 µM (inactive) throughout. In addition, in [18], the GI50 was > 10 µM (inactive).

Source of the values: ChEMBL document CHEMBL1201862, “PubChem BioAssay data set” (2004).
